The values that follow come from patent publication US20220152101A1, “CELLULAR IMMUNOTHERAPY COMBINATION” (CARSGEN THERAPEUTICS CO., LTD., priority 2019, published 2022).

The subject of this experiment is Panc02/Luc-GFP-Claudin 18.2 cells. Kind of experiment: In vivo inhibitory effect of Gemcitabine combined with CAR T cells on in situ mouse pancreatic cancer. More on the design: species or system C57BL/6 mice. The procedure: The pancreases of 6-week-old C57BL/6 mice are inoculated with 2×10^5 Panc02/Luc-GFP-Claudin 18.2 cells in situ, and is recorded as Day 0 in the tumor cell inoculation diary.
On the 6th day after tumor inoculation (i.e., Day 6), mouse T cells are taken and constructed according to Example 1 to construct the 8E5-2I-mBBZ CAR T cell line. At the same time, the mice are subjected to in vivo imaging, and the mice are randomly grouped according to the tumor burden of the mice. The main groups are:
Group 1: UTD group, that is, the group administrated only untransfected mouse T cell treatment;
Group 2: CART group, that is, the group administrated only 8E5-2I-mBBZ CAR T cell therapy;
Group 3: Gemcitabine group, that is, the group administrated only Gemcitabine; and
Group 4: Gemcitabine+CART group, that is, the group administrated 8E5-2I-mBBZ CAR T cells combined with Gemcitabine treatment.
On the 6th, 7th, and 8th day (i.e., Day 6, 7, and 8), mice in the Gemcitabine group and Gemcitabine+CART group are administrated 30 mg/kg Gemcitabine for treatment, intraperitoneal administration, once a day. […]

With `Cl.Nc1ccn([C@@H]2O[C@H](CO)[C@@H](O)C2(F)F)c(=O)n1` [Gemcitabine, 2′-deoxy-2′, 2′-difluorocytidine hydrochloride], the “tumor burdens compared to the UTD group” value (Day 13, in vivo imaging, FIG. 2, Gemcitabine 30 mg/kg i.p. Day 6-8, 3×10^6 CAR-T cells tail vein Day 9) was “significantly decreased”. Also, the “tumor growth (in vivo imaging data)” value (FIG. 3, Gemcitabine+CART compared with the UTD group, P<0.05) is recorded as “continue to grow”.
